The subject of this assay is ATB1 (DNA, aptamer) ATATCTTTTCCTACTCATCTTTGAATAACTACCGGGCATTACTTTCTGGCCTCCCTGCCTCCTAAATCACCAATTAATTCGCGGCCCCCCG
Description: fluorescence recovery, aptamer-QD on graphene oxide. As to conditions: phosphate buffer pH 7.2, 0.5% BSA, room temperature; tested concentration not stated.

`C[C@@H]1Cc2c(Cl)cc(C(=O)N[C@@H](Cc3ccccc3)C(=O)O)c(O)c2C(=O)O1`: the binding entry was “no”.
